This experiment has as its system CXCL10. Briefly: CXCL10/CXCR3 expression in RIL-175 tumor tissue (RNA-seq, ELISA, RNA-Scope ISH, western blot). In kind it is in vivo, mouse. The conditions noted are these: regorafenib alone at 10 mg/kg and 20 mg/kg; 6 hours after treatment. As to the method:
The RNA-Scope assay was performed according to manufacturer’s instructions.[32] Briefly, formaldehyde-fixed and paraffin-embedded human and mouse HCC tissue blocks were cut in 5 µm sections, pretreated for 30 min, following digestion and hybridization at 40°C in a HybEZ oven with both dual labeling probes antimurine CXCR3 probe (Mm-CXCR3; 402511-C2) and CXCL10 (Mm-CXCL10; 408921) or human CXCL10 (Hs-CXCL10; 311851), all from Advanced Cell Diagnostics. Counterstaining was performed using hematoxylin for 10 s.
(A) Changes induced by combination of regorafenib (10 mg/kg) with anti-PD1 antibody in immune-related pathways from the gene set enrichment analysis (GSEA) using curated gene sets in RIL-175 HCC model (see also online supplemental dataset S1 and figure S2E). (B, C) Changes induced by combination of regorafenib (10 mg/kg) with anti-PD1 antibody in STAT3 and STAT1 activity (B), showing an increased ratio of phosphorylated (p)-STAT1/p-STAT3 (normalized to total STAT1 and STAT3, respectively) by western blot analysis of whole RIL-175 HCC tissue (C) (n=4 mice). […] (J, K) Combination therapy increases CXCL10 protein expression in whole RIL-175 tumor tissue 6 hours and 12 hours after in vivo when regorafenib treatment was used at doses of 10 mg/kg (R10) and 20 mg/kg (R20) (n=3) by western blot analysis (J); quantitative data of CXCL10/β-actin ratios are shown in (K). […]

Each structure is given as a SMILES string.

On to `CNC(=O)c1cc(Oc2ccc(NC(=O)Nc3ccc(Cl)c(C(F)(F)F)c3)c(F)c2)ccn1` [regorafenib], for which the “CXCL10 protein in whole tumor tissue lysate (western blot)” value is “increased protein levels”.

(Values after article PMC7689089, “Regorafenib combined with PD1 blockade increases CD8 T-cell infiltration by inducing CXCL10 expression in hepatocellular carcinoma” (Journal for Immunotherapy of Cancer, 2020).)
